Measured values published in patent publication US9962350B2, “Agent for improving normal development rate of fertilized eggs” (SBI Pharmaceuticals Co., Ltd., priority 2014, dated 2018).

Key:
[1] = tested on: fertilized eggs obtained by the mating between female mice of the BDF2 lineage and male mice of the BDF1 lineage; assay: In vitro culture of natural mating-derived fertilized eggs (BDF2 females x BDF1 males) with ALA; embryo development; format: cell-based, mouse; details: 1 μM ALA
Method: Aside therefrom, a drop of 100 μL of M16 medium covered with mineral oil (manufactured by Sigma-Aldrich Corp.) and supplemented with ALA hydrochloride (manufactured by SBI Pharmaceuticals Co., Ltd.) at a final concentration of 0 μM (control), 0.1 μM, 0.5 μM, or 1 μM was prepared in a 35 mm Petri dish and left standing at 37° C. in a CO2 incubator. 29 or 30 of the cumulus cell-free fertilized eggs were transferred to the resulting drop and cultured in vitro at 37° C. in a CO2 incubator.
After a lapse of 24 hours, 48 hours, 72 hours, and 96 hours from the start of the in vitro culture (0 hours) in the drop, the developmental stage of each embryo was determined by observation under a stereoscopic microscope, and the number of embryos whose development progressed normally and change in development rate were calculated. Specifically, the number of 2-cell eggs 24 hours after the start of the culture, the number of 3-cell, 4-cell, and 8-cell eggs 48 hours thereafter, the number of morulae and blastocysts 72 hours thereafter, and the number of blastocysts 96 hours thereafter were counted as embryos whose development progressed normally at each stage. The development rate with the number of fertilized eggs (0 hours) defined as 100% is shown in Table 3 and the graph of FIG. 1. For the evaluation of the development rate, the percentage of the number of embryos whose development progressed normally 24 hours, 48 hours, 72 hours, and 96 hours after the start of the culture was calculated with the number of fertilized eggs (0 hours) defined as 100%, and used as a normal development rate. Because of the natural mating, the number of recovered fertilized eggs (0 hours) includes unfertilized eggs to some extent, and there is the possibility that the content of unfertilized eggs varies accidentally among fertilized eggs (0 hours) populations distributed to the respective condition groups even if the fertilized eggs (0 hours) populations have been recovered in the same experiment. The development rate calculated with the number of 2-cell embryos 24 hours postfertilization defined as 100% was calculated in order to eliminate the influence of the content of unfertilized eggs that varies accidentally among the respective condition groups. In short, in order to calculate the development rate on the basis of the number of eggs that reliably started embryo development, the development rate with the number of 2-cell embryos 24 hours postfertilization defined as 100% is shown in Table 4 and the graph of FIG. 2. The results of each test group were statistically analyzed by the square test (chi-square test) with a statistically significant difference of p<0.01 (**) and p<0.05 (*).
The study was conducted in the same way as in Example 1 except that: the female mice used to harvest fertilized eggs were female mice of the BDF2 lineage (5 to 24 weeks old, body weight: 16 to 25 g) obtained by the mating between females and males of the BDF1 lineage (F1 of C57BL/6 females×DBA/2 males); the male mice used for mating were male mice of the BDF1 lineage (F1 of C57BL/6 females×DBA/2 males) (46 to 52 weeks old, body weight: 30 to 45 g); and 1 μM ALA was studied. The results are shown in Tables 5 to 7 below and FIGS. 3 and 4.

[2] = tested on: C57BL/6J fertilized eggs (natural mating); assay: Low-temperature in vitro culture of natural mating-derived fertilized eggs in KSOM or mWM with ALA; embryo development; format: cell-based, mouse; details: 35° C.
Method: According to a routine method of controlled ovarian hyperstimulation, 5 U (units) of equine chorionic gonadotropin (serum gonadotropin) (ASKA Pharmaceutical Co., Ltd.) were intraperitoneally administered to each female mouse of the C57BL/6J lineage (4 weeks old to 6 weeks old). 45 to 48 hours later, 5 U (units) of gonadotropin (human chorionic gonadotropin) (ASKA Pharmaceutical Co., Ltd.) were intraperitoneally administered thereto. Immediately after the administration of gonadotropin, each female mouse was mated with each male mouse of the C57BL/6J lineage. In the next morning, the oviducts were recovered into physiological saline (0.9% (w/v) NaCl) from the female mice that were able to be confirmed to have a vaginal plug. The oviducts were perfused with KSOM or mWM (both were purchased from ARK Resource Co., Ltd., http://www.ark-resource.co.jp/seihin/cryopreservation-liquid/) containing hyaluronidase (approximately 300 μg/ml, Sigma-Aldrich Corp.). After removal of cumulus cells from the obtained fertilized eggs, the fertilized eggs were recovered. In order to remove hyaluronidase, the fertilized eggs were washed with each medium (KSOM or mWM) and maintained in KSOM or mWM (ARK Resource Co., Ltd.) in an incubator of 37° C. and 5% CO2 until the fertilized eggs were recovered from all of the female mice. These two media used are typical media for use in mouse embryo culture. KSOM is a typical low glucose-containing medium, whereas mWM is a high glucose-containing medium.
20 to 50 of the recovered fertilized eggs were transferred into a drop (covered with mineral oil (Sigma-Aldrich Corp.)) consisting of 100 μl of ALA-unsupplemented or ALA-supplemented (1 μM or 3 μM) medium (KSOM or mWM). Subsequently, the fertilized eggs were cultured under two culture conditions: a condition of 37° C. and 5% CO2 and a condition of 35° C. and 5% CO2. The number of 2-cell eggs was counted 24 hours after the fertilized egg harvest, and the number of blastocysts was counted 96 hours thereafter. The development rate was evaluated in the same way as in Example 1. The results about KSOM are shown in Tables 8 to 10 and FIGS. 5 and 6. The results about mWM are shown in Tables 11 to 13 and FIGS. 7 and 8.

[3] = 1 μM ALA, mWM, 96 hr (blastocysts)
[4] = 3 μM ALA, mWM, 96 hr (blastocysts)

NCC(=O)CCC(=O)O [ALA, 5-aminolevulinic acid]
The number of developed embryos ([1]; 24 hr): 41
development rate with the number of fertilized eggs (0 hr) defined as 100% ([1]; 24 hr): 82%
The number of developed embryos ([1]; 48 hr): 41
development rate with the number of 2-cell embryos 24 hours postfertilization defined as 100% ([1]; 48 hr): 100%
development rate with the number of fertilized eggs (0 hr) defined as 100% ([1]; 48 hr): 82%
The number of developed embryos ([1]; 72 hr): 40
development rate with the number of fertilized eggs (0 hr) defined as 100% ([1]; 72 hr): 80%
The number of developed embryos ([1]; 96 hr): 40
development rate with the number of fertilized eggs (0 hr) defined as 100% ([1]; 96 hr): 80%
development rate as compared with the ALA-unsupplemented control (in words) ([1]; number of fertilized eggs (0 hours) defined as 100%): elevate the development rate
The number of developed embryos in KSOM ([2]; 1 μM ALA, 24 hr): 39
development rate with the number of fertilized eggs (0 hr) in KSOM defined as 100% ([2]; 1 μM ALA, 24 hr): 67%
The number of developed embryos in KSOM ([2]; 1 μM ALA, 48 hr): 23
development rate with the number of 2-cell embryos 24 hours postfertilization in KSOM defined as 100% ([2]; 1 μM ALA, 48 hr): 59%
development rate with the number of fertilized eggs (0 hr) in KSOM defined as 100% ([2]; 1 μM ALA, 48 hr): 40%
The number of developed embryos in KSOM ([2]; 1 μM ALA, 96 hr): 6
development rate with the number of 2-cell embryos 24 hours postfertilization in KSOM defined as 100% ([2]; 1 μM ALA, 96 hr (blastocysts)): 15%
development rate with the number of fertilized eggs (0 hr) in KSOM defined as 100% ([2]; 1 μM ALA, 96 hr (blastocysts)): 10%
The number of developed embryos in mWM ([2]; 1 μM ALA, mWM, 24 hr): 59
development rate with the number of fertilized eggs (0 hr) in mWM defined as 100% ([2]; 1 μM ALA, mWM, 24 hr): 50%
The number of developed embryos in mWM ([2]; 1 μM ALA, mWM, 48 hr): 48
development rate with the number of 2-cell embryos 24 hours postfertilization in mWM defined as 100% ([2]; 1 μM ALA, mWM, 48 hr): 81%
development rate with the number of fertilized eggs (0 hr) in mWM defined as 100% ([2]; 1 μM ALA, mWM, 48 hr): 39%
elevation of development rate to blastocysts vs control (in words) ([2]; 1 μM ALA, mWM, 96 hours (Tables 12 and 13)): no significant elevation
The number of developed embryos in mWM ([2]; 1 μM ALA, mWM, 96 hr): 27
development rate with the number of 2-cell embryos 24 hours postfertilization in mWM defined as 100% [2, 3]: 46%
development rate with the number of fertilized eggs (0 hr) in mWM defined as 100% [2, 3]: 22%
The number of developed embryos in mWM ([2]; 3 μM ALA, mWM, 24 hr): 62
development rate with the number of fertilized eggs (0 hr) in mWM defined as 100% ([2]; 3 μM ALA, mWM, 24 hr): 50%
The number of developed embryos in mWM ([2]; 3 μM ALA, mWM, 48 hr): 62
development rate with the number of 2-cell embryos 24 hours postfertilization in mWM defined as 100% ([2]; 3 μM ALA, mWM, 48 hr): 100%
development rate with the number of fertilized eggs (0 hr) in mWM defined as 100% ([2]; 3 μM ALA, mWM, 48 hr): 50%
The number of developed embryos in mWM ([2]; 3 μM ALA, mWM, 96 hr): 40
development rate with the number of 2-cell embryos 24 hours postfertilization in mWM defined as 100% [2, 4]: 65%
development rate with the number of fertilized eggs (0 hr) in mWM defined as 100% [2, 4]: 32%
